Measurements: the COVID Moonshot data (paper PMC11187573), “Identification of SARS-CoV-2 Mpro inhibitors through deep reinforcement learning for de novo drug design and computational chemistry approaches” (RSC Medicinal Chemistry, 2024)

Columns and labels:
[1] = target: SARS-CoV-2 Main Protease (SARS-CoV-2) (UniProt P0DTD1)
[2] = target: SARS-CoV-2 Main Protease (SARS-CoV-2) (UniProt P0DTD1); remark: listed apart in the source

SMILES | relative solubility at 20 uM | relative solubility at 100 uM | inhibition ([1]; 20.0 µM) [%] | inhibition ([1]; 50.0 µM) [%] | inhibition ([2]; 50.0 µM) [%] | inhibition ([2]; 20.0 µM) [%] | IC50 [2] [µM]
Cc1noc([C@@H](C)S(=O)(=O)Cc2cccc(C(F)(F)F)c2)n1 (stereo in doubt) | 1.01 | 1 | -7.05 | -6.94 | 0 |  | 
O=C(C1CCN(S(=O)(=O)c2ccccc2)CC1)N1CCOCC1 | 1 | 0.99 | 1.87 | 5.52 | 0 | 0 | 
O=C(Cc1cc(Cl)c2c(c1)OCCO2)Nc1cnccc1-c1ccccc1 | 0.88 | 0.94 | -45.1 | -10.4 | 0 |  | 
C=CC(=O)N(c1ccc(C2(C)CC2)cc1)C(C(=O)NC(C)(C)C)c1cccnc1 (stereo not drawn) | 1 | 1 |  | -13.5 | 10.1 | 0 | 
CCOC(=O)[C@@H](CCc1ccccc1)N[C@H](C)C(=O)Nc1cccc(CN2CCCC2)c1 (stereo in doubt) | 0.99 | 0.97 | -3.55 | 1.33 | 6.6 |  | 
O=C(c1cc(=O)[nH]c2ccccc12)N1CCN(c2ccccc2)CC1 | 1 | 1 |  | 54.1 | 78.8 | 66.6 | 10.4
CCCN(CC1COc2ccccc2O1)C(=O)c1cc(=O)[nH]c2cc(F)ccc12 (stereo not drawn) | 0.98 | 0.98 | 5.21 | 8.33 | 0 |  | 
O=C(c1cc(=O)[nH]c2ccc(F)cc12)N1CCN(S(=O)(=O)c2ccccc2)CC1 | 0.98 | 0.98 | 3.84 | 11.9 | 16.2 |  | 
O=C(Nc1cccnc1)Nc1cccc(Cl)c1 | 0.98 | 0.99 | 12.9 | 30.9 | 44.1 |  | 
C=CC(=O)N(c1ccc(C(C)(C)C)cc1)C(C(=O)Nc1c(C)cccc1CC)c1cccnc1 (stereo not drawn) | 0.98 | 0.69 |  | -3.74 | 0 | 0 | 
C=CC(=O)N(c1ccc(C(C)(C)C)cc1)C(C(=O)NCC)c1cccnc1 (stereo not drawn) | 0.99 | 1 | 57 | 50.2 | 100 | 52.6 | 19.4
C=CC(=O)N1CCN(Cc2cccc3ccccc23)CC1 | 1 | 0.99 | -4.32 | 3.35 |  | 0 | 
CC(C)(Cn1c(C2CCC(=O)N2)nnc1N1CCCC(C(N)=O)C1)c1ccccc1F (stereo not drawn) | 1 | 0.99 | -2.8 | 6.51 | 29.4 |  | 
O=C(Cc1cccc(Cl)c1)Nc1nnn[nH]1 | 1 | 1 | 23.3 | 49.1 | 27.2 |  | 
Cc1ccncc1NC(=O)Cc1cccc(C#N)c1 | 1 | 1.01 | 33.6 | 58.3 | 52.7 | 20.5 | 43.8
N#Cc1ccc(CNC(=O)Cc2c[nH]c3ncccc23)cc1 | 1 | 0.99 | 2.44 | 1.71 |  | 1.12 | 
C=CC(=O)N(c1ccc(C(C)(C)C)cc1)C(C(=O)NCCC(=O)OCC)c1cccnc1 (stereo not drawn) | 0.99 | 0.97 | 27.8 | 46.3 | 43.7 | 12.3 | 
O=C(NCc1cccnn1)Nc1cccc(N2CCC2=O)c1 | 1 | 1 | 3.61 | 6.82 | 0 | 0 | 
C#CCOc1ccc(N(C(=O)C=C)C(C(=O)NC(C)(C)C)c2cccnc2)cc1 (stereo not drawn) | 1 | 1 | -13.4 | -14.8 |  | 0 | 

SMILES | relative solubility at 20 uM | relative solubility at 100 uM | inhibition ([1]; 20.0 µM) [%] | inhibition ([1]; 50.0 µM) [%] | inhibition ([2]; 50.0 µM) [%] | inhibition ([2]; 20.0 µM) [%] | IC50 [2] [µM]
O=C1CC[C@H](C(=O)Nc2cccc(Br)c2)N1 (stereo in doubt) | 1 | 1 | 15 | 5.83 | 0 |  | 
Cc1ccc(C)c(N(C)C(=O)Cc2cnn(C)c2C)c1 | 0.97 | 0.98 | 7.75 | 11.4 | 0 |  | 
NS(=O)(=O)c1ccc(N2CCC(Nc3ccccc3)CC2)cc1 | 1 | 1 |  | 9.57 | 22 | 27.2 | 
Cc1ccncc1NC(=O)Cc1ccc(S(N)(=O)=O)cc1 | 1 | 1 | 4.76 | 10.9 | -0.94 | 6.42 | 
COc1ccc2c(c1)CN(C(=O)CCl)C(c1ccccc1)C2 (stereo not drawn) | 0.98 | 0.96 | 97.4 | 97.5 | 100 |  | 1.78
Cc1ccnn1CC(=O)NCC(NC(=O)C(C)C#N)c1ccccc1 (stereo not drawn) | 0.99 | 1 | -13.2 | -6.86 | -26.1 |  | 
Cc1[nH]ncc1NC(=O)Cc1cccc(Cl)c1 | 0.99 | 1 | 3.64 | 6.93 | 52.1 |  | 
COc1ccc(S(=O)(=O)N2CCN(C(=O)c3cc(=O)[nH]c4cc(F)ccc34)CC2)cc1 | 0.87 | 0.9 | 5.98 | -3.27 | 0 |  | 
CCO[C@@H]1C[C@H]1C(=O)Nc1cnccc1C (stereo in doubt) | 1 | 1 | -4.13 | -3.45 | 0 |  | 
C=CC(=O)N(c1ccc(S(F)(F)(F)(F)F)cc1)C(C(=O)Nc1ccc(OC)cc1)c1cccnc1 (stereo not drawn) | 0.83 | 0.71 | 15.7 | 30.6 |  | 10.4 | 
O=C(CCl)N1CCC(c2nc(-c3cccnc3)nc3ccccc23)CC1 | 0.92 | 0.8 | 56.8 | 71.5 | 100 |  | 14.9
O=C(NCCNc1ccncc1)c1cccc(S(=O)(=O)Nc2ccccc2-c2ccccc2)c1 | 0.95 | 0.94 | -20.4 | -32.8 | -3.32 |  | 
O=C(CSC1=NCCS1)c1cc(Cl)ccc1Cl | 0.77 | 0.64 | 5.24 | 2.86 | 44.8 |  | 
CN1CCC(C(=O)NC2CCCCC2NC(=O)C2CCCCC2)CC1 (stereo not drawn) | 1 | 1.01 | -19.4 | -19.4 |  | 0 | 
CN(C)c1ncccc1N(C)C(=O)C1CCOc2ccc(Cl)cc21 (stereo not drawn) | 1 | 0.99 | 1.42 | -4.96 | 0 |  | 
C=CC(=O)N(c1ccc(SC)cc1)C(C(=O)Nc1c(C)cccc1CC)c1cccnc1 (stereo not drawn) | 0.85 | 0.67 | 11.1 | 24.5 |  | 0 | 
O=C(CCl)N1CC2CC1CN2Cc1cccc(Cl)c1 (stereo not drawn) | 0.99 | 1 | 82.2 | 72.7 | 100 | 100 | 0.655
Cc1ccncc1NC(=O)Cc1cncc(Cl)c1 | 1 | 1.01 | 28.8 | 46 | 71.4 |  | 
Cc1cc2c(cc1C)[C@H](C(=O)Nc1cncnc1-n1cccn1)CO2 (stereo in doubt) | 0.82 | 0.76 | -1.2 | -9.4 | 0 |  | 
